Inhibition of growth, growth inhibition (GI) and Activity data for six compounds are collected here from ChEMBL document CHEMBL3856287, “Synthesis of novel tetrazole derivatives and evaluation of their antifungal activity” (Bioorg Med Chem, 2016).

For data set [1], the system named is Candida albicans. The data set can be described thus: Antifungal activity against Candida albicans ATCC 90028 assessed as growth inhibition at 0.25 ug/ml after 48 hrs by broth microdilution method relative to control. Format: functional. To be noted: ATCC 90028, 48 h, read-out: GI. (Dilution methods test growth across graded concentrations, often in twofold steps.)

The nature of data set [2]: Antifungal activity against Fusarium oxysporum MF5 assessed as radial growth inhibition at 64 ug/ml after 5 to 7 days relative to control. Format: functional.
The subject of data set [3] is Candida albicans. Kind of data set: Antifungal activity against Candida albicans ATCC 90028 assessed as growth inhibition at 0.0625 ug/ml after 48 hrs by broth microdilution method relative to control. Format: functional. Particulars: ATCC 90028, 48 h, read-out: GI.
For another data set, the system named is Aspergillus niger. Kind of data set: Antifungal activity against Aspergillus niger ATCC 16404 assessed as radial growth inhibition at 64 ug/ml after 5 to 7 days relative to control. In kind it is functional. Particulars: read-out: GI.
Data set [4] concerns Candida albicans. Kind of data set: Antifungal activity against Candida albicans ATCC 90028 assessed as growth inhibition at 2 ug/ml after 48 hrs by broth microdilution method relative to control. In kind it is functional. To be noted: ATCC 90028, 48 h, read-out: GI.
The test system of data set [5] is Candida albicans. Kind of data set: Antifungal activity against Candida albicans ATCC 90028 assessed as growth inhibition at 4 ug/ml after 48 hrs by broth microdilution method relative to control. In kind it is functional. Particulars: ATCC 90028, 48 h, read-out: GI.
Data set [6] deals with Candida albicans. The data set can be described thus: Antifungal activity against Candida albicans ATCC 90028 assessed as growth inhibition at 1 ug/ml after 48 hrs by broth microdilution method relative to control. Particulars: ATCC 90028, 48 h, read-out: GI. Format: functional.
The test system of data set [7] is Candida albicans. Kind of data set: Antifungal activity against Candida albicans ATCC 90028 assessed as growth inhibition at 16 ug/ml after 48 hrs by broth microdilution method relative to control. To be noted: ATCC 90028, 48 h, read-out: GI. In kind it is functional.
Data set [8] can be described thus: Antifungal activity against Fusarium sambucinum MF1 assessed as radial growth inhibition at 64 ug/ml after 5 to 7 days relative to control. In kind it is functional.
Data set [9] in a line: Antifungal activity against Colletotrichum coccodes MC1 assessed as radial growth inhibition at 64 ug/ml after 5 to 7 days relative to control. In kind it is functional.
In data set [10] the test system is Candida albicans. Kind of data set: Antifungal activity against Candida albicans ATCC 90028 assessed as growth inhibition at 8 ug/ml after 48 hrs by broth microdilution method relative to control. Format: functional. To be noted: ATCC 90028, 48 h, read-out: GI.
Data set [11] relates to Candida albicans. Kind of data set: Antifungal activity against Candida albicans ATCC 90028 assessed as growth inhibition at 0.0313 ug/ml after 48 hrs by broth microdilution method relative to control. Format: functional. To be noted: ATCC 90028, 48 h, read-out: GI.
Data set [12] has as its system Candida albicans. The data set can be described thus: Antifungal activity against Candida albicans ATCC 90028 assessed as growth inhibition at 0.5 ug/ml after 48 hrs by broth microdilution method relative to control. Particulars: ATCC 90028, 48 h, read-out: GI. In kind it is functional.
In data set [13] the test system is Candida albicans. Kind of data set: Antifungal activity against Candida albicans ATCC 90028 assessed as growth inhibition at 0.125 ug/ml after 48 hrs by broth microdilution method relative to control. In kind it is functional. Particulars: ATCC 90028, 48 h, read-out: GI.
Data set [14] in a line: Toxicity in last instar larval stage of Galleria mellonella assessed as decrease in survival at 0.33% after 96 hrs.

In the case of `O=S(=O)(CCn1nnc(-c2ccccc2)n1)c1ccccc1`, the inhibition of growth at 0.25 µg/mL with Candida albicans [1] worked out at 99%. In addition, the growth inhibition (GI) in data set [2] amounted to 17.7%; in [8], 14.5%; in [9], 41.1%. Moreover, the inhibition of growth at 0.0625 µg/mL with Candida albicans [3] came out at 99%. Besides, in the data set on Aspergillus niger, the inhibition of growth at 64 µg/mL amounted to 18.5%. Besides, in the data set with Candida albicans [4], the inhibition of growth at 2 µg/mL was found to be 99%. The inhibition of growth at 4 µg/mL in the data set with Candida albicans [5] was found to be 98.9%. Moreover, the inhibition of growth at 1 µg/mL in the data set on Candida albicans [6] was 99%. Besides, in the data set with Candida albicans [7], the inhibition of growth at 16 µg/mL came to 99.1%. Further, the inhibition of growth at 8 µg/mL with Candida albicans [10] was determined as 99.1%. In addition, the inhibition of growth at 0.0313 µg/mL with Candida albicans [11] was found to be 99.1%. In addition, the inhibition of growth at 0.5 µg/mL in the data set with Candida albicans [12] is 98.9%. For the same compound, the inhibition of growth at 0.125 µg/mL with Candida albicans [13] turned out to be 98.7%.
`Clc1ccccc1-c1nnn(CCCSc2nc3ccccc3s2)n1`: the inhibition of growth at 0.25 µg/mL with Candida albicans [1] was 98.7%. For the same compound, the figures for the growth inhibition (GI) in data set [2], in data set [8] and in data set [9] were 0%, 5% and 16.7%, respectively. In addition, the inhibition of growth at 0.0625 µg/mL in the data set on Candida albicans [3] was found to be 98.9%. Besides, the inhibition of growth at 64 µg/mL in the data set with Aspergillus niger was 0%. Further, in the data set with Candida albicans [4], the inhibition of growth at 2 µg/mL amounted to 98%. Also, in the data set on Candida albicans [5], the inhibition of growth at 4 µg/mL came to 98.7%. The inhibition of growth at 1 µg/mL in the data set on Candida albicans [6] was 98.7%. In addition, the inhibition of growth at 16 µg/mL with Candida albicans [7] was found to be 98.8%. Moreover, the inhibition of growth at 8 µg/mL with Candida albicans [10] amounted to 98.6%. Further, the inhibition of growth at 0.0313 µg/mL with Candida albicans [11] was found to be 98.8%. The inhibition of growth at 0.5 µg/mL in the data set with Candida albicans [12] was determined as 98.6%. Moreover, in the data set with Candida albicans [13], the inhibition of growth at 0.125 µg/mL amounted to 99%.
On to `c1ccc(-c2nnn(CCCSc3nc4ccccc4o3)n2)cc1`, for which the growth inhibition (GI) in data set [2] is 6%; in data set [8], 27%; in data set [9], 43.4%. Besides, the inhibition of growth at 64 µg/mL in the data set with Aspergillus niger amounted to 20.6%.
For `Cc1ccc(-c2nnn(CCCSc3nc4ccccc4o3)n2)cc1`, the growth inhibition (GI) in [2] is 0%; in data set [8], 16%; in data set [9], 43.4%. Also, the inhibition of growth at 64 µg/mL in the data set on Aspergillus niger turned out to be 11.8%.
As for `Cc1ccc(-c2nnn(CCCSc3nc4ccccc4s3)n2)cc1`, the inhibition of growth at 0.25 µg/mL in the data set on Candida albicans [1] amounted to 98.6%. The growth inhibition (GI) in data set [2] is 0%; in data set [8], 0%; in data set [9] it was 33.4%. In addition, the inhibition of growth at 0.0625 µg/mL in the data set with Candida albicans [3] stood at 98.8%. The inhibition of growth at 64 µg/mL in the data set on Aspergillus niger was found to be 3%. In the data set with Candida albicans [4], the inhibition of growth at 2 µg/mL was found to be 98.6%. Also, the inhibition of growth at 4 µg/mL in the data set on Candida albicans [5] was found to be 98.9%. Moreover, the inhibition of growth at 1 µg/mL in the data set on Candida albicans [6] was 98.9%. The inhibition of growth at 16 µg/mL with Candida albicans [7] was found to be 98.8%. For the same compound, the inhibition of growth at 8 µg/mL in the data set with Candida albicans [10] came to 99%. Further, the inhibition of growth at 0.0313 µg/mL in the data set with Candida albicans [11] came out at 98.8%. Also, the inhibition of growth at 0.5 µg/mL with Candida albicans [12] was determined as 98.7%. For the same compound, the inhibition of growth at 0.125 µg/mL in the data set with Candida albicans [13] was 98.8%.
As to `C[S+](C)[O-]` [DIMETHYL SULFOXIDE], the Activity result in data set [14] is reported as “Non-Toxic”.
